Test results from the NIST ThermoML archive (doi:10.1021/acs.jced.8b00837).
“And” between values parts separate entries of the source, which are not always exact repeats. Identical values can stand only once. ± gives the expanded uncertainty stated by the source.

Conditions: Liquid, Vibrating tube method

CCCCn1cc[n+](C)c1.O=S(=O)([O-])C(F)(F)F [1-butyl-3-methylimidazolium trifluoromethanesulfonate]
Conditions | mass density
333.15 K, 79293 kPa | 1313.31 ± 2.5 kg/m3
333.15 K, 89992 kPa | 1318.4 ± 2.7 kg/m3
333.15 K, 98041 kPa | 1322.14 ± 2.8 kg/m3
333.15 K, 109813 kPa | 1327.45 ± 3 kg/m3
333.16 K, 49998 kPa | 1298.5 ± 2.1 kg/m3
333.16 K, 59777 kPa | 1303.59 ± 2.2 kg/m3
333.16 K, 119774 kPa | 1331.81 ± 3.1 kg/m3
333.16 K, 129813 kPa | 1336.09 ± 3.3 kg/m3
333.16 K, 138881 kPa | 1339.86 ± 3.5 kg/m3
333.17 K, 39827 kPa | 1293.05 ± 1.9 kg/m3
343.15 K, 101 kPa | 1262.32 ± 1.4 kg/m3
353.13 K, 5397 kPa | 1257.9 ± 1.5 kg/m3
353.14 K, 1725 kPa | 1255.5 ± 1.4 kg/m3
353.14 K, 10408 kPa | 1261.13 ± 1.5 kg/m3
353.14 K, 60245 kPa | 1290.27 ± 2.2 kg/m3
353.14 K, 69993 kPa | 1295.39 ± 2.3 kg/m3
353.14 K, 79196 kPa | 1300.06 ± 2.4 kg/m3
353.14 K, 119409 kPa | 1318.82 ± 3 kg/m3
353.15 K, 101 kPa | 1254.61 ± 1.4 kg/m3 and 1254.43 ± 1.4 kg/m3
353.15 K, 49992 kPa | 1284.69 ± 2 kg/m3
353.15 K, 89993 kPa | 1305.36 ± 2.6 kg/m3
353.15 K, 97743 kPa | 1309.04 ± 2.7 kg/m3
353.15 K, 109795 kPa | 1314.57 ± 2.9 kg/m3
353.15 K, 129794 kPa | 1323.26 ± 3.2 kg/m3
353.16 K, 40316 kPa | 1279.23 ± 1.9 kg/m3
353.16 K, 139089 kPa | 1327.11 ± 3.4 kg/m3
353.17 K, 29996 kPa | 1273.21 ± 1.8 kg/m3
353.19 K, 20124 kPa | 1267.23 ± 1.6 kg/m3
373.12 K, 78937 kPa | 1286.82 ± 2.4 kg/m3
373.14 K, 1630 kPa | 1240.5 ± 1.5 kg/m3
373.14 K, 4913 kPa | 1242.76 ± 1.5 kg/m3
373.14 K, 40245 kPa | 1265.34 ± 1.9 kg/m3
373.14 K, 69993 kPa | 1282.13 ± 2.2 kg/m3
373.14 K, 89993 kPa | 1292.43 ± 2.5 kg/m3
373.14 K, 99354 kPa | 1297.01 ± 2.6 kg/m3
373.14 K, 109823 kPa | 1301.97 ± 2.8 kg/m3
373.15 K, 101 kPa | 1239.37 ± 1.5 kg/m3 and 1239.44 ± 1.5 kg/m3
373.15 K, 20238 kPa | 1252.94 ± 1.7 kg/m3
373.15 K, 29993 kPa | 1259.1 ± 1.8 kg/m3
373.15 K, 49994 kPa | 1271.05 ± 2 kg/m3
373.15 K, 59359 kPa | 1276.34 ± 2.1 kg/m3
373.15 K, 118844 kPa | 1306.11 ± 2.9 kg/m3
373.15 K, 129824 kPa | 1311 ± 3.1 kg/m3
373.15 K, 139225 kPa | 1315.08 ± 3.2 kg/m3
373.16 K, 10553 kPa | 1246.58 ± 1.6 kg/m3
393.12 K, 20141 kPa | 1238.76 ± 1.6 kg/m3
393.13 K, 29997 kPa | 1245.39 ± 1.7 kg/m3
393.13 K, 39789 kPa | 1251.72 ± 1.8 kg/m3
393.14 K, 10362 kPa | 1231.9 ± 1.5 kg/m3
393.14 K, 99285 kPa | 1284.99 ± 2.6 kg/m3
393.14 K, 118691 kPa | 1294.13 ± 2.9 kg/m3
393.15 K, 101 kPa | 1224.37 ± 1.4 kg/m3 and 1224.41 ± 1.4 kg/m3
393.15 K, 49984 kPa | 1258.04 ± 1.9 kg/m3
393.15 K, 69997 kPa | 1269.67 ± 2.2 kg/m3
393.15 K, 89992 kPa | 1280.34 ± 2.4 kg/m3
393.15 K, 109795 kPa | 1290.04 ± 2.7 kg/m3
393.15 K, 129796 kPa | 1299.01 ± 3 kg/m3
393.15 K, 139693 kPa | 1303.18 ± 3.2 kg/m3
393.16 K, 60109 kPa | 1264.05 ± 2 kg/m3
393.16 K, 79320 kPa | 1274.76 ± 2.3 kg/m3
393.17 K, 1385 kPa | 1225.37 ± 1.5 kg/m3
393.18 K, 5168 kPa | 1228.15 ± 1.5 kg/m3
413.13 K, 1691 kPa | 1210.63 ± 1.4 kg/m3
413.13 K, 99873 kPa | 1273.17 ± 2.5 kg/m3
413.15 K, 101 kPa | 1209.6 ± 1.4 kg/m3 and 1209.39 ± 1.4 kg/m3
413.15 K, 5006 kPa | 1213.19 ± 1.5 kg/m3
413.15 K, 80334 kPa | 1262.84 ± 2.2 kg/m3
413.15 K, 89994 kPa | 1268.07 ± 2.4 kg/m3
413.15 K, 109886 kPa | 1278.08 ± 2.6 kg/m3
413.17 K, 129886 kPa | 1287.14 ± 2.9 kg/m3
413.17 K, 139479 kPa | 1291.12 ± 3.1 kg/m3
413.18 K, 69993 kPa | 1256.95 ± 2.1 kg/m3
413.18 K, 119193 kPa | 1282.42 ± 2.8 kg/m3
413.2 K, 10288 kPa | 1217.19 ± 1.5 kg/m3
413.2 K, 19961 kPa | 1224.32 ± 1.6 kg/m3
413.2 K, 29916 kPa | 1231.38 ± 1.7 kg/m3
413.2 K, 39957 kPa | 1238.21 ± 1.8 kg/m3
413.2 K, 49993 kPa | 1244.75 ± 1.9 kg/m3
413.21 K, 59956 kPa | 1250.96 ± 2 kg/m3
